Data taken from patent publication US20230058623A1, “NOVEL HETEROARYL-TRIAZOLE COMPOUNDS AS PESTICIDES” (Bayer Aktiengesellschaft, priority 2019, published 2023).

How the values were obtained:
Assay type in all cases: in vivo
[1] = test system: Rhipicephalus (Boophilus) microplus larvae (strain Parkhurst, resistant against synthetic pyrethroids); assay: Rhipicephalus (Boophilus) microplus in-vitro contact test, larval cattle tick; conditions: after 48 hours, read-out: activity (efficacy: larvae dead or moribund); for pest or weed control at 1 µg/cm2, 100 g/ha: application rate 1 μg/cm^2 (=100 g/ha); for pest or weed control at 5 µg/cm2, 500 g/ha: application rate 5 μg/cm^2 (=500 g/ha)
Description: Rhipicephalus (Boophilus) microplus—In-Vitro Contact Tests Larval Cattle Tick (Strain Parkhurst, Resistant Against Synthetic Pyrethroids)
(§1) 9 mg compound is solved in 1 ml acetone and diluted with acetone to the desired concentration. 250 μL of the test solution is filled in 25 mL glass test tubes and homogeneously distributed on the inner walls by rotation and tilting on a shaking device (2 h at 30 rpm). With a compound concentration of 900 ppm, an inner surface of 44.7 cm^2 and a homogeneous distribution, a dose of 5 μg/cm^2 is achieved.
After the solvent has evaporated, each test tube is filled with 20-50 cattle tick larvae (Rhipicephalus microplus), closed with a perforated lid and incubated in a horizontal position at 85% relative humidity and 27° C. in an incubator. After 48 hours efficacy is determined. The larvae are patted on the ground of the tubes and negative geotactic behavior is recorded.
An efficacy of 100% means all larvae are dead or moribund; 0% means no larvae are dead or moribund.

[2] = test system: adult engorged female ticks (Rhipicephalus microplus); assay: Rhipicephalus (Boophilus) microplus injection test; conditions: 168 h, application rate 4 μg/tick, egg deposition after 7 days, read-out: activity (efficacy: infertile eggs)
Description: Rhipicephalus (Boophilus) microplus—Injection Test
Solvent: dimethyl sulfoxide
To produce a suitable preparation of active compound, 10 mg of active compound are dissolved in 0.5 mL solvent, and the concentrate is diluted with solvent to the desired concentration.
Five adult engorged female ticks (Rhipicephalus microplus) are injected with 1 μL compound solution into the abdomen. The ticks are transferred into replica plates and incubated in a climate chamber.
After 7 days egg deposition of fertile eggs is monitored. Eggs where fertility is not visible are stored in a climate chamber till hatching after about 42 days. An efficacy of 100% means all eggs are infertile; 0% means all eggs are fertile.

[3] = test system: adult brown dog ticks (Rhipicephalus sanguineus); assay: Rhipicephalus sanguineus in-vitro contact test, adult brown dog ticks; conditions: application rate 5 μg/cm^2 (=500 g/ha), after 48 hours, read-out: activity (efficacy: ticks dead or moribund)
Description: Rhipicephalus sanguineus—In-Vitro Contact Tests with Adult Brown Dog Ticks
as §1, with “mL” for “ml”
(§2) After the solvent has evaporated, each test tube is filled with 5-10 adult brown dog ticks (Rhipicephalus sanguineus), closed with a perforated lid and incubated in a lying position at room temperature and relative humidity. After 48 hours efficacy is determined. The ticks are patted on the ground of the tubes and are incubated on a heating plate at 45-50° C. for at most 5 minutes. Immotile or uncoordinated moving ticks, which are not able to escape the heat by climbing upwards, are marked as dead or moribund.
An efficacy of 100% means all ticks are dead or moribund; 0% means no ticks are dead or moribund.

[4] = test system: green peach aphid (Myzus persicae); assay: Myzus persicae oral test; conditions: 120 h, read-out: activity (mortality)
Description: Solvent: 100 parts by weight acetone
To produce a suitable preparation of active compound, 1 part by weight of active compound is mixed with the stated amount of solvent, and the concentrate is diluted with water to the desired concentration.
50 μL compound solution is filled in microtiter plates and 150 μL IPL41 insect medium (33%+15% sugar) is added to obtain a total volume of 200 μL per well. Afterwards the plates are sealed with parafilm through which a mixed population of the green peach aphid (Myzus persicae) can suck on the compound preparation.
(§3) After 5 days mortality in % is determined. 100% means all aphids have been killed and 0% means none of the aphids have been killed.

[5] = test system: adult cat fleas (Ctenocephalides felis); assay: Ctenocephalides felis in-vitro contact test, adult cat flea; conditions: application rate 5 μg/cm^2 (=500 g/ha), after 48 hours, read-out: activity (efficacy: fleas dead or moribund)
Description: Ctenocephalides felis—In-Vitro Contact Tests Adult Cat Flea
as §1, with “mL” for “ml”
as §2, with “cat fleas (Ctenocephalides felis),” for “brown dog ticks (Rhipicephalus sanguineus),”, “fleas” for “ticks”, “fleas,” for “ticks,”
An efficacy of 100% means all fleas are dead or moribund; 0% means no fleas are dead or moribund.

[6] = test system: larvae of the banded cucumber beetle (Diabrotica balteata); assay: Diabrotica balteata spray test; conditions: 168 h, application rate 100 g/ha (=32 μg/well), after 7 days, wheat seeds, read-out: activity (efficacy: seedlings grown)
Description: Diabrotica balteata—Spray Test
(§4) To produce a suitable preparation of active compound, 1 part by weight of active compound is mixed with the stated amount of solvent, and the concentrate is diluted with water, containing an emulsifier concentration of 1000 ppm, to the desired concentration. Further test concentrations are prepared by dilution with emulsifier containing water.
Soaked wheat seeds (Triticum aestivum) are placed in a multiple well plate filled with agar and some water and are incubated for 1 day to germinate (5 seeds per well). The germinated wheat seeds are sprayed with a test solution containing the desired concentration of the active ingredient. Afterwards each unit is infected with 10-20 larvae of the banded cucumber beetle (Diabrotica balteata).
After 7 days efficacy in % is determined. 100% means all the seedlings have grown up like in the untreated, uninfected control; 0% means none of the seedlings have grown.

[7] = test system: larvae of the southern green stink bug (Nezara viridula); assay: Nezara viridula spray test; conditions: 96 h, after 4 days, barley plants; for mortality at 100 g/ha: application rate 100 g/ha; for mortality at 500 g/ha: application rate 500 g/ha, read-out: activity (mortality)
Description: Nezara viridula—Spray Test
as §4
Barley plants (Hordeum vulgare) are sprayed with a test solution containing the desired concentration of the active ingredient and are infested with larvae of the southern green stink bug (Nezara viridula).
After 4 days mortality in % is determined. 100% means all the stink bugs have been killed; 0% means none of the stink bugs have been killed.

[8] = test system: fall armyworm larvae (Spodoptera frugiperda); assay: Spodoptera frugiperda spray test; conditions: 168 h, application rate 100 g/ha, after 7 days, maize leaf sections
Description: Spodoptera frugiperda—Spray Test
as §4, with “solvents” for “solvent,”, “and” for “and the concentrate”
Maize (Zea mays) leaf sections are sprayed with a preparation of the active ingredient of the desired concentration. Once dry, the leaf sections are infested with fall armyworm larvae (Spodoptera frugiperda).
After 7 days mortality in % is determined. 100% means all caterpillars have been killed and 0% means none of the caterpillars have been killed.

[9] = test system: green peach aphid (Myzus persicae); assay: Myzus persicae spray test; conditions: foliar, 120 h, application rate 100 g/ha, after 5 days, Chinese cabbage leaf disks, read-out: activity (mortality)
Description: Myzus persicae—Spray Test
as §4, with “solvents” for “solvent,”, “and” for “and the concentrate”
Chinese cabbage (Brassica pekinensis) leaf disks infected with all instars of the green peach aphid (Myzus persicae), are sprayed with a preparation of the active ingredient of the desired concentration.
as §3

C[C@H](NC(=O)c1cc(C(F)(F)F)cc(C(F)(F)F)c1)c1ncnn1-c1ccc(C(=O)N2CCC(O)CC2)cn1 [Example I-6]
pest or weed control at 1 µg/cm2, 100 g/ha [1]: 90% | pest or weed control at 0.004 mg [2]: 100% | pest or weed control at 5 µg/cm2, 500 g/ha [3]: 80% | mortality at 4 ppm [4]: 100%

C[C@H](NC(=O)c1cc(C(F)(F)F)cc(C(F)(F)F)c1)c1ncnn1-c1ccc(C(=O)N2CCOCC2c2ncno2)cn1 (stereo partly shown) [Example I-98]
pest or weed control at 1 µg/cm2, 100 g/ha [1]: 100% | pest or weed control at 5 µg/cm2, 500 g/ha [1]: 100% | pest or weed control at 5 µg/cm2 [5]: 90% | pest or weed control at 5 µg/cm2, 500 g/ha [3]: 100% | pest or weed control at 32 µg/disc, 100 g/ha [6]: 100% | mortality at 4 ppm [4]: 100% | mortality at 100 g/ha [7]: 90%

C[C@H](NC(=O)c1cc(Cl)cc(S(=O)(=O)C2CC2)c1)c1nc(C2CC2)nn1-c1ccc(C(=O)N2CCOCC2)cn1 [Example I-90]
mortality at 500 g/ha [7]: 100% | mortality at 100 g/ha [8]: 100%

C[C@H](NC(=O)c1cc(C(F)(F)F)cc(C(F)(F)F)c1)c1ncnn1-c1ccc(C(=O)N2CCC2)cn1 [Example I-10]
pest or weed control at 1 µg/cm2, 100 g/ha [1]: 100% | pest or weed control at 5 µg/cm2, 500 g/ha [1]: 100% | pest or weed control at 0.004 mg [2]: 100% | pest or weed control at 5 µg/cm2 [5]: 100% | pest or weed control at 5 µg/cm2, 500 g/ha [3]: 100% | mortality at 4 ppm [4]: 100% | mortality at 100 g/ha [9]: 90% | mortality at 100 g/ha [8]: 100%

C[C@H](NC(=O)c1cc(C(F)(F)F)cc(C(F)(F)F)c1)c1ncnn1-c1ccc(C(=O)N(C)C2CCN(C)CC2)cn1 [Example I-62]
pest or weed control at 32 µg/disc, 100 g/ha [6]: 80% | mortality at 500 g/ha [7]: 100%

CCc1nc([C@H](C)NC(=O)c2cc(Br)cc(OC(F)(F)F)c2)n(-c2ccc(C(=O)N3C[C@@H](C)O[C@@H](C)C3)cn2)n1 [Example I-135]
pest or weed control at 1 µg/cm2, 100 g/ha [1]: 100% | pest or weed control at 5 µg/cm2, 500 g/ha [1]: 100% | pest or weed control at 5 µg/cm2 [5]: 100% | pest or weed control at 5 µg/cm2, 500 g/ha [3]: 100% | pest or weed control at 32 µg/disc, 100 g/ha [6]: 100% | mortality at 500 g/ha [7]: 100% | mortality at 100 g/ha [8]: 100%

C[C@@H]1CN(C(=O)c2cnc(-n3ncnc3[C@H](C)NC(=O)c3cc(OC(F)(F)F)cc(C4CC4)c3)cn2)C[C@H](C)O1 [Example I-141]
mortality at 100 g/ha [9]: 90% | mortality at 100 g/ha [7]: 90% | mortality at 500 g/ha [7]: 100% | mortality at 100 g/ha [8]: 100%

C[C@@H]1CN(C(=O)c2ccc(-n3ncnc3[C@H](C)NC(=O)c3cc(Cl)cc(S(C)(=O)=O)c3)nc2)C[C@@H](C)O1 [Example I-121]
mortality at 4 ppm [4]: 100% | mortality at 100 g/ha [7]: 90% | mortality at 500 g/ha [7]: 100%

CCc1nc([C@H](C)NC(=O)c2cc(Cl)cc(S(=O)(=O)C3CC3)c2)n(-c2ccc(C(=O)N3C[C@@H](C)O[C@@H](C)C3)cn2)n1 [Example I-133]
mortality at 500 g/ha [7]: 100% | mortality at 100 g/ha [8]: 100%

C[C@H](NC(=O)c1cc(Cl)cc(S(C)(=O)=O)c1)c1ncnn1-c1ccc(C(=O)N2CCSCC2)cn1 [Example I-120]
pest or weed control at 32 µg/disc, 100 g/ha [6]: 80% | mortality at 4 ppm [4]: 100% | mortality at 100 g/ha [7]: 90%

CC1CCN(C(=O)c2ccc(-n3ncnc3[C@H](C)NC(=O)c3cc(Cl)cc(C(F)(F)F)c3)nc2)CC1 [Example I-38]
pest or weed control at 0.004 mg [2]: 100% | pest or weed control at 5 µg/cm2, 500 g/ha [3]: 80% | pest or weed control at 32 µg/disc, 100 g/ha [6]: 100%

C[C@H](NC(=O)c1cc(C(F)(F)F)cc(C(F)(F)F)c1)c1ncnn1-c1ccc(C(=O)N2CCNC(=O)C2)cn1 [Example I-65]
mortality at 4 ppm [4]: 100% | mortality at 100 g/ha [7]: 90%

Cc1nc([C@H](C)NC(=O)c2cc(C(F)(F)F)cc(C(F)(F)F)c2)n(-c2ncc(C(=O)N3C[C@@H](C)O[C@H](C)C3)s2)n1 [Example I-106]
pest or weed control at 1 µg/cm2, 100 g/ha [1]: 100% | pest or weed control at 5 µg/cm2, 500 g/ha [1]: 100% | pest or weed control at 0.004 mg [2]: 100% | pest or weed control at 5 µg/cm2, 500 g/ha [3]: 100% | pest or weed control at 32 µg/disc, 100 g/ha [6]: 100% | mortality at 4 ppm [4]: 100% | mortality at 100 g/ha [8]: 100%

C[C@H](NC(=O)c1cc(Cl)cc(C(F)(F)F)c1)c1ncnn1-c1ccc(C(=O)N2CCCOCC2)cn1 [Example I-34]
pest or weed control at 1 µg/cm2, 100 g/ha [1]: 100% | pest or weed control at 5 µg/cm2, 500 g/ha [1]: 100% | pest or weed control at 0.004 mg [2]: 100% | pest or weed control at 5 µg/cm2, 500 g/ha [3]: 100%
